Columns and labels:
[1] = test system: actively induced EAE; experiment: Actively induced EAE (MBP/CFA immunization), clinical score; assay type: in vivo, Lewis rats; conditions: for suppression of EAE via IV tolerization: intravenously prior to immunization for actively induced disease (FIG. 7)
[2] = test system: short term T-cell lines from peripheral blood mononuclear cells; experiment: Proliferation assay of short term T-cell lines for reactivity to MBP, PLP and overlapping MBP peptides; assay type: cell-based, human; conditions: for mean frequency of T-cell lines selectively reactive to the peptide, MS vs controls (FIG. 1): MS patients compared with combined controls
Description: A rapid T-cell cloning technique was used to examine whether there were immunodominant epitopes on human MBP reactive with Class II MHC phenotypes and the frequency of such reactivity. A total of 15,824 short term T-cell lines were generated from 51 human subjects by culturing peripheral blood mononuclear cells ([…]) with purified MBP (100 μg) followed 3 days later, and then every 3-4 days, by the addition of interleukin-2 (IL-2; from ABI, Columbia, Md.) and 2 units recombinant interleukin-4 (IL-4; Genzyme, Boston, Mass.). On Day 13 of culture, an aliquot from each line was tested for reactivity to MBP using the following proliferation assay: T-cell clones (1×10^5 cells/well) were plated in triplicate and cocultured with appropriate stimuli (i.e. 100 μg whole MBP or 5% IL-2) for 72 hours at 37° C., 90% humidity, 5% CO2, in 96 well flat bottomed microtiter plates (Costar). The cells were pulsed with 2 μCi [^3 H]TdR (2 Ci/mmole, New England Nuclear, Boston, Mass.) for the last 18 hours of culture. APCs were prepared by pulsing human Epstein-Barrvirus transformed human B-cells (the virus being commercially available from ATCC) or L-cells which are mouse cells transfected with human DR2 (L-cells are commercially available from ATCC under accession No. ATCC-CCL1 and can be transfected according to the method of Wilkinson, D. et al, J. Exp. Med., 1988, 167:1442-1458 using-DNA encoding DR2 as per Wu, S. et al J. Immunol., 1987, 138:2953). B-cells or L-cells were used at 1×10^6 cells/well in complete media either in the presence or absence of 40 pM MBP or phospholipid protein (PLP) for 2 hours at 37° C., washing twice with 4° C. […]
Subjects with other central nervous system diseases had the following diagnoses: 1-3 weeks after either cerebrovascular accident (n=4), brain trauma with CNS hemorrhage (n=4), or metastatic brain tumor (n=2). […] In addition, the frequency of MBP and PLP-reactive lines was calculated separately for each subject by dividing the number of MBP-reactive lines by the total number of lines generated and the mean values +/- SEM are given. […]

Molecule | mean frequency of T-cell lines selectively reactive to the peptide, MS vs controls (FIG. 1) [2] | suppression of EAE via IV tolerization [1] | also measured
histone | – | – | mean maximal score ([1]; IV injection before immunization with MBP/CFA, clinical scale 0-5): 3.0±0.3
HHPARTAHYGSLPQKSEGRT [61-82] | Significant but less striking increases in reactivity | – | –
131-150: Control guinea pig MBP peptide 131-150 (DYKSKGFKGAHDAQGTLSKI; UniProt P25188 131-150, looked up, fragment) | – | did not suppress | suppression of EAE via oral tolerization ([1]; orally prior to immunization for actively induced disease (FIG. 7)): did not suppress
FKGVDAQGTLSKIFKLGGRD [143-168, human MBP amino acid residues 143-168] | both MS and control subjects showed high frequencies | – | –
proteolipid protein (protein, UniProt P60201 2-277, looked up) Myelin proteolipid protein: GLLECCARCLVGAPFASLVATGLCFFGVALFCGCGHEALTGTEKLIETYFSKNYQDYEYLINVIHAFQYVIYGTASFFFLYGALLLAEGFYTTGAVRQIFGDYKTTICGKGLSATVTGGQKGRGSRGQHQAHSLERVCHCLGKWLGHPDKFVGITYALTVVWLLVFACSAVPVYIYFNTWTTCQSIAFPSKTSASIGSLCADARMYGVLPWNAFPGKVCGSNLLSICKTAEFQMTFHLFIAAFVGAAATLVSLLTFMIAATYNFAVLKLMGRGTKF | – | – | MEAN FREQUENCY OF Ag REACTIVE LINES ([2]; other neurological disease (n = 10), mean +/- SEM): 0.90 ± 0.62
myelin basic protein (protein, UniProt P25188 1-167, looked up) Myelin basic protein: ASQKRPSQRHGSKYLATASTMDHARHGFLPRHRDTGILDSIGRFFGSDRAAPKRGSGKDSHHAARTTHYGSLPQKSQRSQDENPVVHFFKNIVTPRTPPPSQGKGRGLSLSRFSWGAEGQKPGFGYGGRADYKSKGFKGAHDAQGTLSKIFKLGGRDSRSGSPMARR | – | suppression of EAE | –

From patent US6077509A, “Peptide fragments of myelin basic protein” (Autoimmune, Inc., priority 1995, dated 2000)
